{
  "source": "ChEMBL document CHEMBL5150065",
  "about": "“Design, synthesis, and bioevaluation of imidazo [1,2-a] pyrazine derivatives as tubulin polymerization inhibitors with potent anticancer activities” (Bioorg Med Chem, 2022)",
  "key": {"HCT-116 [1]": {"system": "HCT-116", "assay": "Induction of cell cycle arrest in human HCT-116 cells assessed as G1 phase cells at 40 nM measured after 48 hrs by propidium iodide/RNase staining based flow cytometry analysis (reference value: 61.51 %)", "type": "functional"}, "HCT-116 [2]": {"system": "HCT-116", "assay": "Induction of cell cycle arrest in human HCT-116 cells assessed as S phase cells at 120 nM measured after 48 hrs by propidium iodide/RNase staining based flow cytometry analysis (reference value: […] %)", "type": "functional"}, "HCT-116 [3]": {"system": "HCT-116", "assay": "Induction of cell cycle arrest in human HCT-116 cells assessed as G1 phase cells at 120 nM measured after 48 hrs by propidium iodide/RNase staining based flow cytometry analysis (reference value: 61.51 %)", "type": "functional"}, "HCT-116 [4]": {"system": "HCT-116", "assay": "Inhibition of cell migration in human HCT-116 cells assessed as suppression of wound closure at 80 nM incubated for 48 hrs by wound healing assay relative to control", "type": "functional"}, "HCT-116 [5]": {"system": "HCT-116", "assay": "Inhibition of cell migration in human HCT-116 cells assessed as suppression of wound closure at 20 nM incubated for 48 hrs by wound healing assay relative to control", "type": "functional"}, "HCT-116 [6]": {"system": "HCT-116", "assay": "Induction of cell cycle arrest in human HCT-116 cells assessed as S phase cells at 80 nM measured after 48 hrs by propidium iodide/RNase staining based flow cytometry analysis (reference value: […] %)", "type": "functional"}, "HCT-116 [7]": {"system": "HCT-116", "assay": "Induction of cell cycle arrest in human HCT-116 cells assessed as S phase cells at 20 nM measured after 48 hrs by propidium iodide/RNase staining based flow cytometry analysis (reference value: […] %)", "type": "functional"}, "HCT-116 [8]": {"system": "HCT-116", "assay": "Induction of apoptosis in human HCT-116 cells assessed as total apoptotic cells at 80 nM incubated for 48 hrs by Annexin-V FITC/PI staining based flow cytometry analysis (reference value: 5.76 %)", "type": "functional"}, "MDA-MB-231": {"system": "MDA-MB-231", "assay": "Antiproliferative activity against human MDA-MB-231 cells assessed as inhibition of cell growth incubated for 48 hrs by MTT assay", "type": "functional, cell-based", "details": "MDA-MB-231, 48 h"}, "Tubulin (Homo sapiens) [9]": {"target": "T1, Tubulin (Homo sapiens) (UniProt P68371+Q9H4B7+P0DPH7+P68366+Q13509+Q71U36+P04350+Q3ZCM7+P07437+P68363+Q9BQE3+Q6PEY2+Q13885+Q9BVA1+Q9BUF5)", "assay": "Induction of microtubule disruption in human HCT-116 cells assessed as disintegrated microtubules at 20 to 60 nM incubated for 48 hrs by DAPI staining based confocal microscopic immunofluorescence analysis", "type": "cell-based", "details": "dose 20-60 nM"}, "HCT-116 [10]": {"system": "HCT-116", "assay": "Induction of apoptosis in human HCT-116 cells assessed as total apoptotic cells at 40 nM incubated for 48 hrs by Annexin-V FITC/PI staining based flow cytometry analysis (reference value: 5.76 %)", "type": "functional"}, "HCT-116 [11]": {"system": "HCT-116", "assay": "Antiproliferative activity against human HCT-116 cells assessed as inhibition of cell growth incubated for 48 hrs by MTT assay", "type": "functional, cell-based", "details": "HCT-116, 48 h"}, "HepG2": {"system": "HepG2", "assay": "Antiproliferative activity against human HepG2 cells assessed as inhibition of cell growth incubated for 48 hrs by MTT assay", "type": "functional, cell-based", "details": "HepG2, 48 h"}, "HCT-116 [12]": {"system": "HCT-116", "assay": "Induction of cell cycle arrest in human HCT-116 cells assessed as increase in G2/M phase cells at 40 nM measured after 48 hrs by propidium iodide/RNase staining based flow cytometry analysis (reference value: […] %)", "type": "functional"}, "HCT-116 [13]": {"system": "HCT-116", "assay": "Induction of cell cycle arrest in human HCT-116 cells assessed as G1 phase cells at 80 nM measured after 48 hrs by propidium iodide/RNase staining based flow cytometry analysis (reference value: 61.51 %)", "type": "functional"}, "A549": {"system": "A549", "assay": "Antiproliferative activity against human A549 cells assessed as inhibition of cell growth incubated for 48 hrs by MTT assay", "type": "functional, cell-based", "details": "A549, 48 h"}, "HCT-116 [14]": {"system": "HCT-116", "assay": "Inhibition of cell migration in human HCT-116 cells assessed as suppression of wound closure at 40 nM incubated for 48 hrs by wound healing assay relative to control", "type": "functional"}, "Tubulin (Sus scrofa)": {"target": "Tubulin (Sus scrofa) (UniProt P02554+P02550)", "sequence (P02550 whole entry, looked up)": "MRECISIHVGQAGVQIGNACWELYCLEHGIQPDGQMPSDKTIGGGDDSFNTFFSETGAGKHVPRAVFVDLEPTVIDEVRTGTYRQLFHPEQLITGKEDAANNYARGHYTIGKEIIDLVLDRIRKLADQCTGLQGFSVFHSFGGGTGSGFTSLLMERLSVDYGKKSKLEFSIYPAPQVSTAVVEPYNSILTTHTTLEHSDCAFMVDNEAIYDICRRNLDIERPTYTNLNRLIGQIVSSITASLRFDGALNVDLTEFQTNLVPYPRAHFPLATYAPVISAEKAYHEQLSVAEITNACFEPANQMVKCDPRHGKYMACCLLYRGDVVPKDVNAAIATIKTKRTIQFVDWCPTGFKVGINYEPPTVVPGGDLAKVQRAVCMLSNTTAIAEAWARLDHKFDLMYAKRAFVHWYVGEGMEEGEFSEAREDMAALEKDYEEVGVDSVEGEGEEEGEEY", "sequence (P02554 whole entry, looked up)": "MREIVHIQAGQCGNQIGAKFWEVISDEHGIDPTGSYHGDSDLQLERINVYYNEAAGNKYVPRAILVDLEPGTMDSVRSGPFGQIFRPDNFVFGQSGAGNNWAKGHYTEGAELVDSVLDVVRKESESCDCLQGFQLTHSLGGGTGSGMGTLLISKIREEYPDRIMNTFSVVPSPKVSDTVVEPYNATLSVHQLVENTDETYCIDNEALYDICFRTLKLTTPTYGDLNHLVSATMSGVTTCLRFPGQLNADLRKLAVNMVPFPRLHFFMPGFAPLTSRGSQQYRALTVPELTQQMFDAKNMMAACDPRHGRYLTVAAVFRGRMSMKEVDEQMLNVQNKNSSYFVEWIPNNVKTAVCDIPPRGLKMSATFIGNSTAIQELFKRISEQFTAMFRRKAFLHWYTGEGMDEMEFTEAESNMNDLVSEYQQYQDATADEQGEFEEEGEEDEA", "assay": "(§1) Inhibition of pig brain tubulin polymerization in the presence of GTP by spectrophotometric analysis", "details": "DDE = dose-dependent effect"}, "Tubulin": {"target": "Tubulin (Sus scrofa, UniProt P02554+P02550)", "assay": "as §1"}, "HCT-116 [15]": {"system": "HCT-116", "assay": "Induction of cell cycle arrest in human HCT-116 cells assessed as S phase cells at 40 nM measured after 48 hrs by propidium iodide/RNase staining based flow cytometry analysis (reference value: […] %)", "type": "functional"}, "HCT-116 [16]": {"system": "HCT-116", "assay": "Induction of cell cycle arrest in human HCT-116 cells assessed as increase in G2/M phase cells at 80 nM measured after 48 hrs by propidium iodide/RNase staining based flow cytometry analysis (reference value: […] %)", "type": "functional"}, "HCT-116 [17]": {"system": "HCT-116", "assay": "Induction of apoptosis in human HCT-116 cells assessed as total apoptotic cells at 20 nM incubated for 48 hrs by Annexin-V FITC/PI staining based flow cytometry analysis (reference value: 5.76 %)", "type": "functional"}, "HCT-116 [18]": {"system": "HCT-116", "assay": "Inhibition of cell migration in human HCT-116 cells assessed as suppression of wound closure at 10 nM incubated for 48 hrs by wound healing assay relative to control", "type": "functional"}, "HCT-116 [19]": {"system": "HCT-116", "assay": "Induction of cell cycle arrest in human HCT-116 cells assessed as increase in G2/M phase cells at 120 nM measured after 48 hrs by propidium iodide/RNase staining based flow cytometry analysis (reference value: […] %)", "type": "functional"}, "HCT-116 [20]": {"system": "HCT-116", "assay": "Induction of cell cycle arrest in human HCT-116 cells assessed as increase in G2/M phase cells at 20 nM measured after 48 hrs by propidium iodide/RNase staining based flow cytometry analysis (reference value: […] %)", "type": "functional"}, "HCT-116 [21]": {"system": "HCT-116", "assay": "Induction of cell cycle arrest in human HCT-116 cells assessed as G1 phase cells at 20 nM measured after 48 hrs by propidium iodide/RNase staining based flow cytometry analysis (reference value: 61.51 %)", "type": "functional"}, "Tubulin (Homo sapiens) [22]": {"target": "T1, Tubulin (Homo sapiens)", "assay": "Induction of microtubule disruption in human HCT-116 cells assessed as short microtubules at 20 to 60 nM incubated for 48 hrs by DAPI staining based confocal microscopic immunofluorescence analysis", "type": "cell-based", "details": "dose 20-60 nM"}, "HCT-116 [23]": {"system": "HCT-116", "assay": "Induction of apoptosis in human HCT-116 cells assessed as total apoptotic cells at 120 nM incubated for 48 hrs by Annexin-V FITC/PI staining based flow cytometry analysis (reference value: 5.76 %)", "type": "functional"}},
  "note": "The source made the active and inactive calls. The calls are words filed in the database; no cut-off is given here.",
  "data": [
    {"smiles": "COc1cc(-c2nccn3cc(-c4ccc5[nH]ccc5c4)nc23)cc(OC)c1OC", "values": [
      {"measurement": "Activity", "setting": "HCT-116 [1]", "value": 60.42, "unit": "%"},
      {"measurement": "Activity", "setting": "HCT-116 [2]", "value": 12.16, "unit": "%"},
      {"measurement": "Activity", "setting": "HCT-116 [3]", "value": 8.17, "unit": "%"},
      {"measurement": "inhibition at 0.08 µM", "setting": "HCT-116 [4]", "value": 60.6, "unit": "%"},
      {"measurement": "inhibition at 0.02 µM", "setting": "HCT-116 [5]", "value": 55, "unit": "%"},
      {"measurement": "Activity", "setting": "HCT-116 [6]", "value": 8.87, "unit": "%"},
      {"measurement": "Activity", "setting": "HCT-116 [7]", "value": 17.47, "unit": "%"},
      {"measurement": "Activity", "setting": "HCT-116 [8]", "value": 37.2, "unit": "%"},
      {"measurement": "IC50", "setting": "MDA-MB-231", "value": 74, "unit": "nM"},
      {"measurement": "Activity", "setting": "Tubulin (Homo sapiens) [9]", "value": "Active"},
      {"measurement": "Activity", "setting": "HCT-116 [10]", "value": 29.53, "unit": "%"},
      {"measurement": "IC50", "setting": "HCT-116 [11]", "value": 23, "unit": "nM"},
      {"measurement": "IC50", "setting": "HepG2", "value": 146, "unit": "nM"},
      {"measurement": "Activity", "setting": "HCT-116 [12]", "value": 17.6, "unit": "%"},
      {"measurement": "Activity", "setting": "HCT-116 [13]", "value": 11.9, "unit": "%"},
      {"measurement": "IC50", "setting": "A549", "value": 154, "unit": "nM"},
      {"measurement": "inhibition at 0.04 µM", "setting": "HCT-116 [14]", "value": 56.8, "unit": "%"},
      {"measurement": "inhibition", "setting": "Tubulin (Sus scrofa)", "value": "Dde"},
      {"measurement": "IC50", "setting": "Tubulin", "value": 45700, "unit": "nM"},
      {"measurement": "Activity", "setting": "HCT-116 [15]", "value": 21.98, "unit": "%"},
      {"measurement": "Activity", "setting": "HCT-116 [16]", "value": 79.23, "unit": "%"},
      {"measurement": "Activity", "setting": "HCT-116 [17]", "value": 6.25, "unit": "%"},
      {"measurement": "inhibition at 0.01 µM", "setting": "HCT-116 [18]", "value": 30.8, "unit": "%"},
      {"measurement": "Activity", "setting": "HCT-116 [19]", "value": 79.67, "unit": "%"},
      {"measurement": "Activity", "setting": "HCT-116 [20]", "value": 21.11, "unit": "%"},
      {"measurement": "Activity", "setting": "HCT-116 [21]", "value": 61.42, "unit": "%"},
      {"measurement": "Activity", "setting": "Tubulin (Homo sapiens) [22]", "value": "Active"},
      {"measurement": "Activity", "setting": "HCT-116 [23]", "value": 50.07, "unit": "%"}
    ]}
  ]
}
